Values after ≈ are worked out from the molar mass of the structure shown. Square brackets hold non-standard residues; d marks the D form. Peptide text beside a SMILES is read from it. dOrn = NCCC[C@@H](N)C(=O)O; Orn = NCCC[C@H](N)C(=O)O
Assays:
[1] = system: Balamuthia mandrillaris; assay: Anti-amoebic activity against Balamuthia mandrillaris CDC V093 (ATCC 50209) assessed as reduction in amoebae viability measured after 72 hrs by luminescent based CellTiter-Glo assay; type: functional, organism-based
[2] = system: A549; assay: Cytotoxicity against human A549 cells assessed as reduction in cell viability incubated for 72 hrs by CellTiter-Glo reagent based assay; type: functional; conditions: A549, 72 h
[3] = Hemolytic activity in human red blood cells assessed as hemolysis at 100 uM incubated for 1 hr by absorbance based assay relative to control; type: toxicity, cell-based, Erythrocyte; conditions: read-out: Activity
[4] = system: Lactococcus lactis; assay: Antibacterial activity against Lactococcus lactis measured after 24 hrs; type: functional, organism-based
[5] = system: Balamuthia mandrillaris; assay: Anti-amoebic activity against Balamuthia mandrillaris assessed as reduction in amoebae viability measured after 72 hrs by luminescent based CellTiter-Glo assay; type: functional, organism-based
[6] = Selectivity index, ratio of IC50 for cytotoxicity against human A549 cells to IC50 for anti-amoebic activity against Balamuthia mandrillaris CDC V093 (ATCC 50209) assessed as reduction in amoebae viability; type: toxicity, cell-based; conditions: read-out: Ratio IC50
[7] = system: Naegleria fowleri; assay: Anti-amoebic activity against Naegleria fowleri assessed as reduction in amoebae viability measured for 72 hrs by luminescent based CellTiter-Glo assay; type: functional, organism-based
[8] = system: Acanthamoeba castellanii; assay: Anti-amoebic activity against Acanthamoeba castellanii assessed as reduction in amoebae viability measured for 72 hrs by luminescent based CellTiter-Glo assay; type: functional, organism-based

| SMILES | IC50 [1] [µM] | hemolysis at 1 h, 100 µM [3] [%] | also measured |
| --- | --- | --- | --- |
| CC(C)[C@@H]1NC(=O)[C@@H](CCCCN)NC(=O)[C@H]([C@@H](C)O)NC(=O)[C@@H](CCCN)NC(=O)[C@H](Cc2ccccc2)NC(=O)[C@@H](Cc2ccccc2)NC1=O | 3.8 | < 10 | IC50 [2]: > 100 µM |
| C[C@@H]1NC(=O)[C@@H](CCCNC(=N)N)NC(=O)[C@H]([C@@H](C)O)NC(=O)[C@@H](CCCN)NC(=O)[C@H](Cc2ccccc2)NC(=O)[C@@H](Cc2ccccc2)NC1=O | > 20 |  |  |
| C=C(NC(=O)[C@@H](NC(=O)[C@H](Cc1c[nH]cn1)NC(=O)[C@@H](NC(=O)[C@H](CO)NC(=O)[C@@H]1CS[C@@H](C)[C@H]2NC(=O)C(=C)NC(=O)[C@H](NC(=O)[C@H](CCCCN)NC(=O)[C@H](CCSC)NC(=O)[C@H](CC(N)=O)NC(=O)[C@@H]3CS[C@@H](C)[C@@H](NC(=O)[C@H](CCCNN)NC(=O)[C@@H]4CS[C@@H](C)[C@@H](NC(=O)[C@@H]5CSC[C@@H](NC(=O)/C(=C\C)NC(=O)[C@@H](N)[C@@H](C)CC)C(=O)N[C@@H]([C@@H](C)CC)C(=O)NC(=C)C(=O)N[C@@H]([C@@H](C)CC)C(=O)N5)C(=O)N5CCC[C@H]5C(=O)NCC(=O)N4)C(=O)NCC(=O)N[C@@H](C)C(=O)N[C@@H]([C@@H](C)CC)C(=O)N[C@@H](CCSC)C(=O)NCC(=O)N3)[C@H](C)SC[C@H](NC2=O)C(=O)N[C@@H](Cc2c[nH]cn2)C(=O)N1)[C@@H](C)CC)C(C)C)C(=O)N[C@@H](CCCCN)C(=O)O |  |  | IC50 [4]: 4.5 mg/L (≈ 1.34 µM) |
| CC(C)[C@@H]1NC(=O)[C@@H](CCCNC(=N)N)NC(=O)[C@H]([C@@H](C)O)NC(=O)[C@@H](CCCN)NC(=O)[C@H](Cc2ccccc2)NC(=O)[C@@H](Cc2ccccc2)NC1=O | 5 | < 10 | IC50 [2]: > 100 µM; IC50 [5]: 4 mg/L (≈ 5.23 µM); selectivity ratio at 72 h [6]: > 20 |
| CC(C)[C@@H]1NC(=O)[C@@H](CO)NC(=O)[C@H](CCCNC(=N)N)NC(=O)[C@@H](Cc2ccccc2)NC1=O |  |  | IC50 [7]: 6 mg/L (≈ 12.3 µM) |
| CC(C)[C@@H]1NC(=O)[C@@H](CCCNC(=N)N)NC(=O)[C@H]([C@@H](C)O)NC(=O)[C@@H](C)NC(=O)[C@H](Cc2ccccc2)NC(=O)[C@@H](Cc2ccccc2)NC1=O | 11.9 | < 10 |  |
| CC(C)[C@@H]1NC(=O)[C@@H](CCCNC(=N)N)NC(=O)[C@H]([C@@H](C)O)NC(=O)[C@@H](CCCCN)NC(=O)[C@H](Cc2ccccc2)NC(=O)[C@@H](Cc2ccccc2)NC1=O | 4.1 | < 10 |  |
| CC(C)[C@@H]1NC(=O)[C@@H](CCCNC(=N)N)NC(=O)[C@H]([C@@H](C)O)NC(=O)[C@@H](CCCN)NC(=O)[C@H](C)NC(=O)[C@@H](Cc2ccccc2)NC1=O | > 20 |  |  |
| CC(C)[C@@H]1NC(=O)[C@@H](C)NC(=O)[C@H]([C@@H](C)O)NC(=O)[C@@H](CCCN)NC(=O)[C@H](Cc2ccccc2)NC(=O)[C@@H](Cc2ccccc2)NC1=O | > 20 |  |  |
| C[C@@H]1NC(=O)[C@@H](CCCNC(=N)N)NC(=O)[C@H]([C@@H](C)O)NC(=O)[C@@H](CCCN)NC(=O)[C@H](Cc2ccccc2)NC(=O)[C@@H](C)NC1=O | > 20 |  |  |
| CC(C)[C@@H]1NC(=O)[C@@H](CCCCN)NC(=O)[C@H]([C@@H](C)O)NC(=O)[C@@H](CCCCN)NC(=O)[C@H](Cc2ccccc2)NC(=O)[C@@H](Cc2ccccc2)NC1=O | 3.9 | < 10 |  |
| CC(C)[C@H](N)C(=O)N[C@H](Cc1ccccc1)C(=O)N[C@@H](Cc1ccccc1)C(=O)N[C@H](CCCN)C(=O)N[C@H](C(=O)N[C@H](CCCNC(=N)N)C(=O)O)[C@@H](C)O (H-V[dF]F[dOrn]T[dR]-OH) | > 20 | < 10 |  |
| CC(C)[C@@H]1NC(=O)[C@@H](CCCNC(=N)N)NC(=O)[C@H](C)NC(=O)[C@@H](CCCN)NC(=O)[C@H](Cc2ccccc2)NC(=O)[C@@H](Cc2ccccc2)NC1=O (cyclo(A[dR]V[dF]F[dOrn])) | 8.5 | < 10 | IC50 [2]: > 100 µM |
| NCCC[C@@H]1NC(=O)[C@@H](CCCN)NC(=O)[C@H](Cc2ccccc2)NC(=O)[C@@H](Cc2ccccc2)NC(=O)[C@H](Cc2ccccc2)NC(=O)[C@@H](CCCN)NC1=O (cyclo(F[dF]F[dOrn][Orn][dOrn])) |  |  | IC50 [8]: 5.3 mg/L (≈ 6.76 µM) |

From ChEMBL document CHEMBL6153136, “Cyclic Peptide Natural Product Inspired Inhibitors of the Free-Living Amoeba Balamuthia mandrillaris” (J Nat Prod, 2025)
